How the values were obtained:
Assay type in all cases: in vivo
[1] = system: large crabgrass (Digitaria sanguinalis); assay: Test A pre-/postemergence plant response
Procedure, shortened: (§1)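 Greenhouse pot test: loam–sand soil; pre- and postemergence sprays applied same day; post plants 2–10 cm, 1–2 leaves. Readout ~10 d, visual % injury vs untreated (0 = none, 100 = complete control).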

[2] = system: wheat (Triticum aestivum); assay: Test A pre-/postemergence plant response
Procedure, shortened: as §1

[3] = system: pigweed (Amaranthus retroflexus); assay: Test A pre-/postemergence plant response
Procedure, shortened: as §1

[4] = system: morningglory (Ipomoea coccinea); assay: Test A pre-/postemergence plant response
Procedure, shortened: as §1

[5] = system: giant foxtail (Setaria faberi); assay: Test A pre-/postemergence plant response
Procedure, shortened: as §1

[6] = system: velvetleaf (Abutilon theophrasti); assay: Test A pre-/postemergence plant response
Procedure, shortened: as §1

[7] = system: barnyardgrass (Echinochloa crus-galli); assay: Test A pre-/postemergence plant response
Procedure, shortened: as §1

[8] = system: umbrella sedge (Cyperus difformis); assay: Test B flooded paddy test plant response
Procedure, shortened: (§2)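 2-leaf plants; pots flooded 3 cm above soil; compound added to paddy water; depth maintained. Greenhouse 13–15 d. Visual rating vs controls, 0 (no effect) to 100 (complete control); dash = no result.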

[9] = system: barnyardgrass (Echinochloa crus-galli); assay: Test B flooded paddy test plant response
Procedure, shortened: as §2

[10] = system: ducksalad (Heteranthera limosa); assay: Test B flooded paddy test plant response
Procedure, shortened: as §2

[11] = system: canarygrass (Phalaris minor); assay: Test B postemergence plant response; conditions: for Canarygrass plant response rating: 8 g ai/ha, postemergence, 0-100 scale; for Plant response rating, Canarygrass: Postemergence
Procedure, shortened: (§3)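 Visual injury ratings on a 0–100 scale, where 100 means complete control, were made 13 to 15 days after postemergence treatment of greenhouse-grown plants at the 1- to 4-leaf stage.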

[12] = system: windgrass (Apera spica-venti); assay: Test B postemergence plant response; conditions: for Windgrass plant response rating: 8 g ai/ha, postemergence, 0-100 scale; for Plant response rating, Windgrass: Postemergence
Procedure, shortened: as §3

[13] = system: chickweed (Stellaria media); assay: Test B postemergence plant response; conditions: for Chickweed plant response rating: 8 g ai/ha, postemergence, 0-100 scale; for Plant response rating, Chickweed: Postemergence
Procedure, shortened: as §3

[14] = system: winter barley (Hordeum vulgare); assay: Test B postemergence plant response; conditions: for Barley plant response rating: 8 g ai/ha, postemergence, 0-100 scale; for Plant response rating, Barley: Postemergence, scale 0 to 100, 0 no effect, 100 complete control
Procedure, shortened: as §3

[15] = Postemergence, 31 g ai/ha, 0 to 100 scale, 0 no effect, 100 complete control
[16] = Postemergence, 125 g ai/ha, 0 to 100 scale, 0 no effect, 100 complete control
[17] = Preemergence, 31 g ai/ha, 0 to 100 scale, 0 is no effect, 100 is complete control
[18] = Preemergence, 125 g ai/ha, 0 to 100 scale (0 no effect, 100 complete control)
[19] = Flood (flooded paddy test), 62 g ai/ha, scale 0 to 100, 0 no effect, 100 complete control
[20] = Flood (flooded paddy test), 125 g ai/ha, scale 0 to 100, 0 no effect, 100 complete control
[21] = Flood, 31 g ai/ha, scale 0 to 100
[22] = 31 g ai/ha, scale 0 to 100, 0 no effect, 100 complete control
[23] = 62 g ai/ha, scale 0 to 100, 0 no effect, 100 complete control
[24] = Flood (flooded paddy test), 250 g ai/ha, scale 0 to 100, 0 no effect, 100 complete control

Cc1cc(-c2ccc(Cl)cc2)nn1-c1c(OS(=O)(=O)c2ccccc2)cnn(C)c1=O [Compound 35]
Plant response rating, Crabgrass, Large [1, 15]: 40 | Plant response rating, Crabgrass, Large [1, 16]: 90 | Plant response rating, Crabgrass, Large [1, 17]: 90 | Plant response rating, Crabgrass, Large [1, 18]: 100 | Plant response rating, Wheat [2, 15]: 0 | Plant response rating, Wheat [2, 16]: 60 | Plant response rating, Wheat [2, 17]: 20 | Plant response rating, Wheat [2, 18]: 80 | Plant response rating, Pigweed [3, 15]: 0 | Plant response rating, Pigweed [3, 16]: 0 | Plant response rating, Pigweed [3, 17]: 0 | Plant response rating, Pigweed [3, 18]: 30 | Plant response rating, Morningglory [4, 15]: 0 | Plant response rating, Morningglory [4, 16]: 0 | Plant response rating, Morningglory [4, 17]: 0 | Plant response rating, Morningglory [4, 18]: 0 | Plant response rating, Foxtail, Giant [5, 15]: 60 | Plant response rating, Foxtail, Giant [5, 16]: 90 | Plant response rating, Foxtail, Giant [5, 17]: 100 | Plant response rating, Foxtail, Giant [5, 18]: 100 | Plant response rating, Velvetleaf [6, 15]: 0 | Plant response rating, Velvetleaf [6, 16]: 0 | Plant response rating, Velvetleaf [6, 17]: 0 | Plant response rating, Velvetleaf [6, 18]: 0 | Plant response rating, Barnyardgrass [7, 15]: 60 | Plant response rating, Barnyardgrass [7, 16]: 90 | Plant response rating, Barnyardgrass [7, 17]: 80 | Plant response rating, Barnyardgrass [7, 18]: 100 | Plant response rating, Sedge, Umbrella [8, 19]: 0 | Plant response rating, Sedge, Umbrella [8, 20]: 0 | Plant response rating, Sedge, Umbrella [8, 21]: 0 | Plant response rating, Barnyardgrass [9, 19]: 0 | Plant response rating, Barnyardgrass [9, 20]: 0 | Plant response rating, Barnyardgrass [9, 21]: 0 | Plant response rating, Ducksalad [10, 19]: 0 | Plant response rating, Ducksalad [10, 20]: 0 | Plant response rating, Ducksalad [10, 21]: 0 | Canarygrass plant response rating [11]: 0 | Plant response rating, Canarygrass ([11]; 16 g ai/ha, scale 0 to 100): 0 | Plant response rating, Canarygrass [11, 22]: 5 | Plant response rating, Canarygrass [11, 23]: 45 | Windgrass plant response rating [12]: 0 | Plant response rating, Windgrass ([12]; 16 g ai/ha, scale 0 to 100): 0 | Plant response rating, Windgrass [12, 23]: 40 | Chickweed plant response rating [13]: 0 | Plant response rating, Chickweed ([13]; 16 g ai/ha, scale 0 to 100): 0 | Plant response rating, Chickweed [13, 22]: 0 | Plant response rating, Chickweed [13, 23]: 0 | Barley plant response rating [14]: 0 | Plant response rating, Barley ([14]; 16 g ai/ha): 0 | Plant response rating, Barley ([14]; 31 g ai/ha): 5 | Plant response rating, Barley ([14]; 62 g ai/ha): 35

Cc1cc(-c2ccc(Cl)cc2)nn1-c1c(OC(=O)CC(C)C)cnn(C)c1=O [Compound 37]
Plant response rating, Crabgrass, Large [1, 15]: 50 | Plant response rating, Crabgrass, Large [1, 16]: 90 | Plant response rating, Crabgrass, Large [1, 17]: 80 | Plant response rating, Crabgrass, Large [1, 18]: 100 | Plant response rating, Wheat [2, 15]: 20 | Plant response rating, Wheat [2, 16]: 70 | Plant response rating, Wheat [2, 17]: 30 | Plant response rating, Wheat [2, 18]: 90 | Plant response rating, Pigweed [3, 15]: 0 | Plant response rating, Pigweed [3, 16]: 0 | Plant response rating, Pigweed [3, 17]: 0 | Plant response rating, Pigweed [3, 18]: 0 | Plant response rating, Morningglory [4, 15]: 0 | Plant response rating, Morningglory [4, 16]: 0 | Plant response rating, Morningglory [4, 17]: 0 | Plant response rating, Morningglory [4, 18]: 0 | Plant response rating, Foxtail, Giant [5, 15]: 80 | Plant response rating, Foxtail, Giant [5, 16]: 100 | Plant response rating, Foxtail, Giant [5, 17]: 100 | Plant response rating, Foxtail, Giant [5, 18]: 100 | Plant response rating, Velvetleaf [6, 15]: 0 | Plant response rating, Velvetleaf [6, 16]: 0 | Plant response rating, Velvetleaf [6, 17]: 0 | Plant response rating, Velvetleaf [6, 18]: 0 | Plant response rating, Barnyardgrass [7, 15]: 90 | Plant response rating, Barnyardgrass [7, 16]: 100 | Plant response rating, Barnyardgrass [7, 17]: 90 | Plant response rating, Barnyardgrass [7, 18]: 100 | Plant response rating, Sedge, Umbrella [8, 19]: 0 | Plant response rating, Sedge, Umbrella [8, 20]: 0 | Plant response rating, Sedge, Umbrella [8, 24]: 60 | Plant response rating, Barnyardgrass [9, 19]: 60 | Plant response rating, Barnyardgrass [9, 20]: 100 | Plant response rating, Barnyardgrass [9, 24]: 100 | Plant response rating, Barnyardgrass [9, 21]: 30 | Plant response rating, Ducksalad [10, 19]: 70 | Plant response rating, Ducksalad [10, 20]: 70 | Plant response rating, Ducksalad [10, 24]: 75 | Canarygrass plant response rating [11]: 0 | Plant response rating, Canarygrass ([11]; 16 g ai/ha, scale 0 to 100): 10 | Plant response rating, Canarygrass [11, 22]: 10 | Plant response rating, Canarygrass [11, 23]: 40 | Windgrass plant response rating [12]: 10 | Plant response rating, Windgrass ([12]; 16 g ai/ha, scale 0 to 100): 60 | Plant response rating, Windgrass [12, 23]: 85 | Chickweed plant response rating [13]: 0 | Plant response rating, Chickweed ([13]; 16 g ai/ha, scale 0 to 100): 0 | Plant response rating, Chickweed [13, 22]: 0 | Plant response rating, Chickweed [13, 23]: 0 | Barley plant response rating [14]: 0 | Plant response rating, Barley ([14]; 16 g ai/ha): 0 | Plant response rating, Barley ([14]; 31 g ai/ha): 5 | Plant response rating, Barley ([14]; 62 g ai/ha): 15

From patent US20100267561A1, “HERBICIDAL PYRIDAZINONE DERIVATIVES” (priority 2007, published 2010)
